One assay addresses T1, hSCN9A (Homo sapiens, UniProt Q15858).
T1 construct: expressed in transfected cells
The assay can be described thus: Whole-cell patch-clamp electrophysiology (conventional or PatchXpress), HEK cells expressing hSCN9A, estimated IC-50. Format: cell-based. Conditions: read-out: SCN9A EIC-50. An outline of the steps:
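Stably transfected HEK cells recorded by whole-cell voltage clamp (manual or PatchXpress) at 22–24 °C in pH 7.4 HEPES-buffered extracellular solution. Cells held at the empirically determined inactivation V1/2 after an 8 s prepulse, then stepped to 0 mV for 20 ms; % inhibition from current amplitude before vs after compound.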

Another assay concerns the target T2, hSCN3A (Homo sapiens, UniProt Q9NY46).
T2 construct: expressed in transfected cells
The assay can be described thus: Whole-cell patch-clamp electrophysiology (conventional or PatchXpress), HEK cells expressing hSCN3A, estimated IC-50. The class given is cell-based. Conditions: read-out: SCN3A EIC-50. As to the method:
Human Embryonic Kidney (HEK) cells were transfected with hSCN3A or hSCN9A constructs using lipofectamine reagent (Invitrogen), using standard techniques. Cells stably expressing the hSCN3A or hSCN9A constructs were identified by their resistance to G-418 (400 μg/ml). Clones were screened for expression using the whole-cell voltage-clamp technique. HEK cells stably transfected with hSCN3A or hSCN9A were maintained in DMEM medium supplemented with 10% heat-inactivated fetal bovine serum and 400 μg/ml G418 sulfate in an incubator at 37° C. with a humidified atmosphere of 10% CO2. For HTS, cells were harvested from flasks by trypsinization and replated in an appropriate multi-well plate (typically 96 or 384 wells/plate) such that confluence would be achieved within 24 hours of plating. For electrophysiological studies, cells were removed from the culture flask by brief trypsinization and replated at low density onto glass cover slips. Cells were typically used for electrophysiological experiments within 24 to 72 h after plating. Cover slips containing HEK cells expressing hSCN3A or hSCN9A were placed in a bath on the stage of an inverted microscope and perfused (approximately 1 ml/min) with extracellular solution of the following composition: 138 mM NaCl, 2 mM CaCl2, 5.4 mM KCl, 1 mM MgCl2, 10 mM glucose, and 10 mM HEPES, pH 7.4, with NaOH. […] All recordings were made at room temperature (22-24° C.) using AXOPATCH 200B amplifiers and PCLAMP software (Axon Instruments, Burlingame, Calif.) or PatchXpress 7000 hardware and associated software (Axon Instruments, Burlingame, Calif.). hSCN3A or hSCN9A currents in HEK cells were measured using the whole-cell configuration of the patch-clamp technique (Hamill et al., 1981). […] As a result, voltage errors were negligible and no correction was applied. Current records were acquired at 20 to 50 KHz and filtered at 5 to 10 KHz. HEK cells stably transfected with hSCN3A or hSCN9A were viewed under Hoffman contrast optics and placed in front of an array of flow pipes emitting either control or compound-containing extracellular solutions. All compounds were dissolved in dimethyl sulfoxide to make 10 mM stock solutions, which were then diluted into extracellular solution to attain the final concentrations desired. […] The voltage-dependence of inactivation was determined by applying a series of depolarizing prepulses (8 sec long in 10 mV increments) from a negative holding potential. The voltage was then immediately stepped to 0 mV to assess the magnitude of the sodium current. Currents elicited at 0 mV were plotted as a function of prepulse potential to allow estimation of the voltage midpoint of inactivation (V1/2). Cells were then voltage clamped at the empirically determined V1/2. Compounds were tested for their ability to inhibit hSCN3A or hSCN9A sodium channels by activating the channel with a 20 msec voltage step to 0 mV following an 8 second conditioning prepulse to the empirically determined V1-2 (Table B). Compound effect (% inhibition) was determined by difference in current amplitude before and after application of test compounds. […] In some cases electrophysiological assays were conducted with PatchXpress 7000 hardware and associated software (Molecular Devices Corp) (Table B). All assay buffers and solutions were identical to those used in conventional whole-cell voltage clamp experiments described above. hSCN3A or hSCN9A containing cells were grown as above to 50%-80% confluency and harvested by trypsinization. Trypsinized cells were washed and resuspended in extracellular buffer at a concentration of 1×10^6 cells/ml. The onboard liquid handling facility of the PatchXpress was used for dispensing cells and application of test compounds. Determination of the voltage midpoint of inactivation was as described for conventional whole-cell recordings. Cells were then voltage-clamped to the empirically determined V1/2 and current was activated by a 20 msec voltage step to 0 mV.

The mark [1] stands for this setting: Table V, estimated IC-50 from single point electrophysiology, cells clamped at V1/2.
Setting [2] is: commercial compounds (second Table VI), estimated IC-50 from single point electrophysiology.
The mark [3] stands for this setting: estimated IC-50, HEK cells expressing hSCN9A, class symbols or bounds.
Where [4] appears, read: estimated IC-50, HEK cells expressing hSCN3A, class symbols or bounds.

Like-named read-outs stand apart in the source and are kept apart here.

T1 sequence (Q15858 whole entry): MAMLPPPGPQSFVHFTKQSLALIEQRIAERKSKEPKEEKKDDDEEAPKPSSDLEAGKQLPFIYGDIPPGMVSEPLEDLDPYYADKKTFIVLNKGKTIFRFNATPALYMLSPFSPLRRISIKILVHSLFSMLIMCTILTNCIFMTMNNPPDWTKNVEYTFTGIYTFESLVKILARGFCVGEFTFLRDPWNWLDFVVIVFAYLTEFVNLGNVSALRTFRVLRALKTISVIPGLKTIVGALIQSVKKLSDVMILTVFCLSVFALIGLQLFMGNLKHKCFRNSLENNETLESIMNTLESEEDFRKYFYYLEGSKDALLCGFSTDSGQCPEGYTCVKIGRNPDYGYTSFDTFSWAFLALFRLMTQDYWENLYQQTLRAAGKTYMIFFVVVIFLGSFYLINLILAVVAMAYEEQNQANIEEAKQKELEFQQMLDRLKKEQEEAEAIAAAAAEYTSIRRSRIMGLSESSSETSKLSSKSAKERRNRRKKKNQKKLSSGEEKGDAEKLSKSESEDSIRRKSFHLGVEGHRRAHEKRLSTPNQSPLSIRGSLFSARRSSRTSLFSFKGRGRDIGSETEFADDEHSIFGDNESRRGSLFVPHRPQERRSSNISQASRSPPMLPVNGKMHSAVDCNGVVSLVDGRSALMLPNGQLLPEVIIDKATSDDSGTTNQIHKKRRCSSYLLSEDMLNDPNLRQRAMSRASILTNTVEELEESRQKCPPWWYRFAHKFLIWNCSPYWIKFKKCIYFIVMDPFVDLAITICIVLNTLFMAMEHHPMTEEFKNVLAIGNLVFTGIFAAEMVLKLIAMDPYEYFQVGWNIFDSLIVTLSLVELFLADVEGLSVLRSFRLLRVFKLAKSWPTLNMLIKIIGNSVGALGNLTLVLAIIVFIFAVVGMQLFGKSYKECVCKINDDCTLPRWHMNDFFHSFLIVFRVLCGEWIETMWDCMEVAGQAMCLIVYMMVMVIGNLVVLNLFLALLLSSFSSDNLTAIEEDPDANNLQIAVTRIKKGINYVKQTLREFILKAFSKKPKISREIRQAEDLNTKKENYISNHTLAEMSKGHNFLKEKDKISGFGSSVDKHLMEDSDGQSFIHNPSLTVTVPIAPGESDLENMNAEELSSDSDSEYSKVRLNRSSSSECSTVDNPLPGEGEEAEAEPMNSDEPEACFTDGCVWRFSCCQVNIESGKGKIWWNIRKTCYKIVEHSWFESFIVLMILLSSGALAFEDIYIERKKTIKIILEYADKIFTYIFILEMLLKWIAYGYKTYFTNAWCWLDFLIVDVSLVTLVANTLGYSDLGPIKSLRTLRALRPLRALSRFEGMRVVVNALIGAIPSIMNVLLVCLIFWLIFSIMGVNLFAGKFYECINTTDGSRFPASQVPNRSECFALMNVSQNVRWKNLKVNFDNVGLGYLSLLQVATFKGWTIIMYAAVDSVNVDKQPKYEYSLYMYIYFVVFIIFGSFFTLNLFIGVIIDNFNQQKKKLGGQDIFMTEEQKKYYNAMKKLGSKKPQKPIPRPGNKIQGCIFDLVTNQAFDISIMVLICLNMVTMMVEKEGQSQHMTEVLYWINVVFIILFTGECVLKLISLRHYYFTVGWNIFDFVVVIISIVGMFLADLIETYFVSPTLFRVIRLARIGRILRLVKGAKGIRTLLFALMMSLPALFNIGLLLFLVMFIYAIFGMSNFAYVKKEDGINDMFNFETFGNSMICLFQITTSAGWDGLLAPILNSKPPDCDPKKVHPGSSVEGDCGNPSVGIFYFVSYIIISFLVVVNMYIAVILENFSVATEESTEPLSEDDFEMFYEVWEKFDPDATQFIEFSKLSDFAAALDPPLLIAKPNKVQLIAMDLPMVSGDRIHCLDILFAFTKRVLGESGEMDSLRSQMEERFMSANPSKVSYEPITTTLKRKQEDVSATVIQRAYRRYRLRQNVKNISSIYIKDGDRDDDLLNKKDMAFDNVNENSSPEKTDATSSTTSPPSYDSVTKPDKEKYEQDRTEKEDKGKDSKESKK
T2 sequence (Q9NY46 whole entry): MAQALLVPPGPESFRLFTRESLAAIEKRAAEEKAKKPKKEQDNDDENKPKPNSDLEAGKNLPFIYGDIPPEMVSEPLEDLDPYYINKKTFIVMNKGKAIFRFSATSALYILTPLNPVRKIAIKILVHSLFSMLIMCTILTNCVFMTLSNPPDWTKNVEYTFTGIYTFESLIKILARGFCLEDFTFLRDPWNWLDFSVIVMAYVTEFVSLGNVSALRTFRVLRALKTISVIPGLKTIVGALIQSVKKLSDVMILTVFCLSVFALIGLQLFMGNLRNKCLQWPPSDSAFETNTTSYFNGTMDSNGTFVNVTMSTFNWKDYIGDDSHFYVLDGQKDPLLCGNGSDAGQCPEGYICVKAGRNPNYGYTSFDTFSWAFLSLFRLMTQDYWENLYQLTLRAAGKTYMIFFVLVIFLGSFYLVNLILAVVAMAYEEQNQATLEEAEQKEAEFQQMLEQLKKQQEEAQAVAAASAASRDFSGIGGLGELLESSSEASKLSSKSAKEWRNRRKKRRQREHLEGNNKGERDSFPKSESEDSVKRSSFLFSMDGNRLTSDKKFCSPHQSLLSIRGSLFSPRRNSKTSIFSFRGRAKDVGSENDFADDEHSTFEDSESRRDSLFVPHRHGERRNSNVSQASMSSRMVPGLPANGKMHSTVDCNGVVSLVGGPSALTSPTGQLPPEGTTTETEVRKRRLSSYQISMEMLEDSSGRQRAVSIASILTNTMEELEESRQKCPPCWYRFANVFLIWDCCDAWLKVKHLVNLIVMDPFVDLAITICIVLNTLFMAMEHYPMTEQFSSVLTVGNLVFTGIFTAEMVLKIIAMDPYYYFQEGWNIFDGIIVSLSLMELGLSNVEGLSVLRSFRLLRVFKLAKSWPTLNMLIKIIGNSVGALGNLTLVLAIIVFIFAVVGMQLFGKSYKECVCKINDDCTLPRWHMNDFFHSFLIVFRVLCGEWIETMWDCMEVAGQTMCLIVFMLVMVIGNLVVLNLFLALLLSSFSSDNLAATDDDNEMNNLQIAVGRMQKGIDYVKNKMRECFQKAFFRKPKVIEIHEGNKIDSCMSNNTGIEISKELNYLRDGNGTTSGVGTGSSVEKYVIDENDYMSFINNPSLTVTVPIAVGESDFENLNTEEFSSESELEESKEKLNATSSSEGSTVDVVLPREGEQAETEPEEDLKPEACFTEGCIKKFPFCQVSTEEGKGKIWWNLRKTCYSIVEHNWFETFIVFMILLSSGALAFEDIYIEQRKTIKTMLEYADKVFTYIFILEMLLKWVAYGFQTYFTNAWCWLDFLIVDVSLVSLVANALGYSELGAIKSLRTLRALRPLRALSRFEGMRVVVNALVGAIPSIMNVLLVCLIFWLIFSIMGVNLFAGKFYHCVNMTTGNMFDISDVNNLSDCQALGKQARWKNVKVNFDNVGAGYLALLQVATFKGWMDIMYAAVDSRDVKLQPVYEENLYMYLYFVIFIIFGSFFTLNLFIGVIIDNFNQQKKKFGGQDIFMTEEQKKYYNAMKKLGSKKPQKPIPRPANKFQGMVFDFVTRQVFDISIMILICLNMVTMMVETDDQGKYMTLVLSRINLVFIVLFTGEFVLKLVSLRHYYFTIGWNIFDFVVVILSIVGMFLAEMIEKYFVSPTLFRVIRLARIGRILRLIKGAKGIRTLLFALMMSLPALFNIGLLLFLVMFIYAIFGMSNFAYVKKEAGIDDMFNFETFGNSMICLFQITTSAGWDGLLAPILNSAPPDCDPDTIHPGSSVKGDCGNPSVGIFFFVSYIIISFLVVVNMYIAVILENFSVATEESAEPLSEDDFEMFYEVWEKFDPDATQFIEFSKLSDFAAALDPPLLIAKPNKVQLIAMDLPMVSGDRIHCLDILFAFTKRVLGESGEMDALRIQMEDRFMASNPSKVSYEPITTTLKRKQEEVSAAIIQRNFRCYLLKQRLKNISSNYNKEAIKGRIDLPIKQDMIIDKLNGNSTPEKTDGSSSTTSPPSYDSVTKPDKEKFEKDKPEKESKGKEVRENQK

Regarding `Cc1cc(Nc2ccc(S(=O)(=O)Nc3nccs3)c(F)c2)n(-c2ccccc2)n1` [Compound 30, 2-fluoro-4-(3-methyl-1-phenyl-1H-pyrazol-5-ylamino)-N-(thiazol-2-yl)benzenesulfonamide], the IC50 on hSCN9A (setting [1]) and on hSCN3A (setting [1]) was below 2 µM each time.
For the compound `O=S(=O)(Nc1nccs1)c1ccc(Nc2ccn(Cc3ccc(Cl)cc3)n2)cc1F` [Compound 31, 4-(1-(4-chlorobenzyl)-1H-pyrazol-3-ylamino)-2-fluoro-N-(thiazol-2-yl)benzenesulfonamide], the IC50 at hSCN9A (setting [1]) and at hSCN3A (setting [1]) was below 2 µM in each case.
On to `O=S(=O)(Nc1nccs1)c1ccc(Nc2cc(C3CC3)nn2-c2ccccc2)cc1F` [Compound 32, 4-(3-cyclopropyl-1-phenyl-1H-pyrazol-5-ylamino)-2-fluoro-N-(thiazol-2-yl)benzenesulfonamide], for which the IC50 at hSCN9A (setting [1]) and on hSCN3A (setting [1]) was below 2 µM each time.
For `O=S(=O)(Nc1nccs1)c1ccc(Nc2cnn(Cc3ccc(Cl)cc3)c2)cc1F` [Compound 33, 4-(1-(4-chlorobenzyl)-1H-pyrazol-4-ylamino)-2-fluoro-N-(thiazol-2-yl)benzenesulfonamide], the IC50 at hSCN9A (setting [1]) and on hSCN3A (setting [1]) was below 2 µM in each case.
On to `Cn1nc(CC(C)(C)C)cc1Nc1ccc(S(=O)(=O)Nc2nccs2)c(F)c1` [Compound 34, 2-fluoro-4-(1-methyl-3-neopentyl-1H-pyrazol-5-ylamino)-N-(thiazol-2-yl)benzenesulfonamide], for which the IC50 at hSCN9A (setting [1]) and on hSCN3A (setting [1]) was below 2 µM in each case.
Turning to `Cc1cc(Nc2ccc(S(=O)(=O)Nc3nccs3)cc2F)n(-c2ccccc2)n1` [Compound 35, 3-fluoro-4-(3-methyl-1-phenyl-1H-pyrazol-5-ylamino)-N-(thiazol-2-yl)benzenesulfonamide], the IC50 on hSCN9A (setting [1]) and on hSCN3A (setting [1]) was below 2 µM in each case.
`O=S(=O)(Nc1nccs1)c1ccc(Nc2cc(C3CC3)nn2-c2ccccc2)c(F)c1` [Compound 36, 4-(3-cyclopropyl-1-phenyl-1H-pyrazol-5-ylamino)-3-fluoro-N-(thiazol-2-yl)benzenesulfonamide]: the IC50 on hSCN9A (setting [1]) and at hSCN3A (setting [1]) was below 2 µM each time.
Take `O=S(=O)(Nc1nccs1)c1ccc(Nc2ccccc2-c2ccccc2)cc1F` [Compound 37, 4-(Biphenyl-2-ylamino)-2-fluoro-N-thiazol-2-yl-benzenesulfonamide]: the IC50 on hSCN9A (setting [1]) and on hSCN3A (setting [1]) was below 2 µM throughout.
Take `CCOC(=O)C1(C)C=C(Nc2ccc(S(=O)(=O)Nc3nccs3)cc2)C(=O)N1c1ccccc1` (stereo not shown) [Compound 38, ethyl 2-methyl-5-oxo-1-phenyl-4-(4-(N-thiazol-2-ylsulfamoyl)phenylamino)-2,5-dihydro-1H-pyrrole-2-carboxylate, reference compound]: the IC50 at hSCN9A (setting [2]) was above 3 µM; on hSCN3A (setting [2]) it was above 1 µM.
With `Cc1nnc(Nc2ccc(S(=O)(=O)Nc3nccs3)cc2)c2ccccc12` [Compound 39, 4-(4-methylphthalazin-1-ylamino)-N-(thiazol-2-yl)benzenesulfonamide, reference compound], the IC50 at hSCN9A (setting [2]) is above 3 µM; at hSCN3A (setting [2]) it was above 1 µM.
`O=S(=O)(Nc1nccs1)c1ccc(Nc2nnc(-c3ccc(Cl)cc3)c3ccccc23)cc1` [Compound 40, 4-(4-(4-chlorophenyl)phthalazin-1-ylamino)-N-(thiazol-2-yl)benzenesulfonamide, reference compound]: the IC50 was 3.49 µM on hSCN9A (setting [2]) and 1.32 µM on hSCN3A (setting [2]).
Regarding `Cc1ccc(-c2nnc(Nc3ccc(S(=O)(=O)Nc4nccs4)cc3)c3ccccc23)cc1` [Compound 41, N-(thiazol-2-yl)-4-(4-p-tolylphthalazin-1-ylamino)benzenesulfonamide, reference compound], the IC50 at hSCN9A (setting [2]) is above 3 µM; on hSCN3A (setting [2]) it was 1.61 µM.
The matching figures for `O=S(=O)(Nc1nccs1)c1ccc(Nc2nnc(-c3ccccc3)c3ccccc23)cc1` [Compound 42, 4-(4-phenylphthalazin-1-ylamino)-N-(thiazol-2-yl)benzenesulfonamide, reference compound]: above 3 µM and 2.03 µM.
In the case of `O=S(=O)(Nc1nccs1)c1ccc(Nc2nc(-c3ccccc3)cs2)cc1` [Compound 43, 4-(4-phenylthiazol-2-ylamino)-N-(thiazol-2-yl)benzenesulfonamide], the figures for the IC50 at hSCN9A (setting [3]) and at hSCN3A (setting [4]) were 2 to 10 µM and above 1 µM, respectively.
Turning to `O=S(=O)(Nc1nccs1)c1ccc(Nc2ncccn2)cc1` [Compound 44, 4-(pyrimidin-2-ylamino)-N-(thiazol-2-yl)benzenesulfonamide], the values for the IC50 at hSCN9A (setting [3]) and at hSCN3A (setting [4]) were above 3 µM and above 1 µM, respectively.
For the compound `O=S(=O)(Nc1nccs1)c1ccc(Nc2nccc(OCc3ccccc3)n2)cc1` [Compound 45, 4-(4-(benzyloxy)pyrimidin-2-ylamino)-N-(thiazol-2-yl)benzenesulfonamide], the IC50 on hSCN9A (setting [3]) was above 10 µM; on hSCN3A (setting [4]) it was below 2 µM.
The matching figures for `O=S(=O)(Nc1nccs1)c1ccc(Nc2nccc(OCC(c3ccccc3)c3ccccc3)n2)cc1` [Compound 46, 4-(4-(2,2-diphenylethoxy)pyrimidin-2-ylamino)-N-(thiazol-2-yl)benzenesulfonamide]: above 10 µM and below 2 µM.
The matching figures for `O=S(=O)(Nc1nccs1)c1ccc(Nc2nc(-c3ccccc3)c(-c3ccccc3)s2)cc1` [Compound 47, 4-(4,5-diphenylthiazol-2-ylamino)-N-(thiazol-2-yl)benzenesulfonamide]: above 3 µM and below 2 µM.
The matching figures for `O=S(=O)(Nc1nccs1)c1ccc(Nc2nc(COc3ccccc3)cs2)cc1` [Compound 48, 4-(4-(phenoxymethyl)thiazol-2-ylamino)-N-(thiazol-2-yl)benzenesulfonamide]: above 1 µM and below 2 µM.
For `O=S(=O)(Nc1nccs1)c1ccc(Nc2nc(CC(c3ccccc3)c3ccccc3)cs2)cc1` [Compound 49, 4-(4-(2,2-diphenylethyl)thiazol-2-ylamino)-N-(thiazol-2-yl)benzenesulfonamide], the IC50 on hSCN9A (setting [3]) and at hSCN3A (setting [4]) was below 2 µM in each case.
In the case of `O=S(=O)(Nc1nccs1)c1ccc(Nc2nc(CCCOc3ccccc3)cs2)cc1` [Compound 50, 4-(4-(3-phenoxypropyl)thiazol-2-ylamino)-N-(thiazol-2-yl)benzenesulfonamide], the IC50 at hSCN9A (setting [3]) was 2 to 10 µM; on hSCN3A (setting [4]), below 2 µM.
The corresponding values for `O=S(=O)(Nc1nccs1)c1ccc(Nc2nc(CCC3CCCC3)cs2)cc1` [Compound 51, 4-(4-(2-cyclopentylethyl)thiazol-2-ylamino)-N-(thiazol-2-yl)benzenesulfonamide] are 2 to 10 µM and below 2 µM.
In the case of `O=S(=O)(Nc1nccs1)c1ccc(Nc2nc(COc3ccc(Cl)cc3)cs2)cc1` [Compound 52, 4-(4-((4-chlorophenoxy)methyl)thiazol-2-ylamino)-N-(thiazol-2-yl)benzenesulfonamide], the IC50 at hSCN9A (setting [3]) and on hSCN3A (setting [4]) was below 2 µM each time.
